# Reference: US20050130894A1, “Process for the synchronization of ovulation for timed breeding without heat detection” (priority 2003, published 2005)
# Tests used:
# Type in all cases: in vivo, swine
# mature postpartum sows = test: Intravulvar injection at estrus detection in mature postpartum sows, AI breeding (Example 2)
# Protocol: Sows were assigned randomly in blocks of two to either control or to be injected intravulvar with 50 mcg of deslorelin in SAIB at the time of estrus detection for sows first detected in estrus in the a.m. and 12 hours later for those first detected in estrus in the p.m. Treated animals were bred AI upon detected estrus and again 24 hours later if still in estrus. Controls received a saline injection on first detected estrus behavior estrus detection and were bred according to the farm's normal procedures.
# postpartum sows [1] = test: Pregnancy rate after deslorelin treatment in sows, summary of data of Tables 2-5; conditions: Table 6
# Protocol: Approximately 170 postpartum sows were randomly divided into two equal groups comprised of controls and treated. Following weaning, the controls were detected for estrus and bred following the normal standard operating procedures for the farms on which they resided. The treated sows received a 50 mcg dose of deslorelin in SAIB at 96 hours post-weaning and were bred with a single insemination 28+/−2 hours later with no regard to estrus detection. The sows were examined for pregnancy by ultrasound at 21 days and slaughtered around 28 days post breeding. The entire reproductive tract was removed and corpora lutea and embryos were counted. Postpartum sows were randomly distributed into three different groups comprised of Controls, Treatment 1, and Treatment 2, with the exception of Site 3, which was divided into two groups, Control and Treatment 2. Control sows were detected for estrus following weaning, and bred following the normal standard operating procedures for the farms on which they resided. Treatment 1 sows were detected for estrus following weaning, and received a 50 mcg dose of deslorelin in the morning when standing and were bred by AI 4 hours later and again at 24+/−2 hours later. Treatment 2 sows received a 50 mcg dose of deslorelin in SAIB at 96 or 120 hours post-weaning and were bred with a single insemination 28+/−2 hours later with no regard to estrus detection. […]
# postpartum sows [2] = test: Litter size after deslorelin treatment in postpartum sows, three farm sites (Example 4); conditions: regardless of estrus detection, Tables 3-5
# Source text: Postpartum sows were randomly distributed into three different groups comprised of Controls, Treatment 1, and Treatment 2, with the exception of Site 3, which was divided into two groups, Control and Treatment 2. Control sows were detected for estrus following weaning, and bred following the normal standard operating procedures for the farms on which they resided. Treatment 1 sows were detected for estrus following weaning, and received a 50 mcg dose of deslorelin in the morning when standing and were bred by AI 4 hours later and again at 24+/−2 hours later. Treatment 2 sows received a 50 mcg dose of deslorelin in SAIB at 96 or 120 hours post-weaning and were bred with a single insemination 28+/−2 hours later with no regard to estrus detection.
# postpartum sows [3] = test: Single timed injection 96 hours post-weaning, single timed insemination without estrus detection (Example 3); conditions: 50 mcg in SAIB at 96 hours post-weaning
# Protocol: Approximately 170 postpartum sows were randomly divided into two equal groups comprised of controls and treated. Following weaning, the controls were detected for estrus and bred following the normal standard operating procedures for the farms on which they resided. The treated sows received a 50 mcg dose of deslorelin in SAIB at 96 hours post-weaning and were bred with a single insemination 28+/−2 hours later with no regard to estrus detection. The sows were examined for pregnancy by ultrasound at 21 days and slaughtered around 28 days post breeding. The entire reproductive tract was removed and corpora lutea and embryos were counted.
smiles,measurement,setting,value
"CCNC(=O)[C@@H]1CCCN1C(=O)[C@H](CCCN=C(N)N)NC(=O)[C@H](CC(C)C)NC(=O)[C@@H](Cc1c[nH]c2ccccc12)NC(=O)[C@H](Cc1ccc(O)cc1)NC(=O)[C@H](CO)NC(=O)[C@H](Cc1c[nH]c2ccccc12)NC(=O)[C@H](Cc1cnc[nH]1)NC(=O)[C@@H]1CCC(=O)N1 [Deslorelin, deslorelin]",Pregnancy Rate,"mature postpartum sows; 50 μg deslorelin acetate (1 ml) intravulvar at first estrus detection, AI, AI again if in estrus next day, n = 75",91%
same,Length of Estrus,"mature postpartum sows; 50 μg deslorelin acetate (1 ml) intravulvar at first estrus detection, n = 69",40.81 h
same,"Live piglet number, Deslorelin versus Saline sows (difference)","mature postpartum sows; 50 μg intravulvar at first estrus detection, live piglets born per litter, greater than control",Live piglet number 0.6> in Deslorelin versus Saline sows.
same,Pregnancy rates (in words),postpartum sows [1],normal pregnancy rates were obtained
same,Litter sizes (in words),postpartum sows [2],normal litter sizes
same,Embryo Survival,postpartum sows [3],64%
same,Sows Pregnant,"postpartum sows [3]; single insemination 28+/-2 hours later, 84 in group",60
same,Pregnancy Rate,"postpartum sows [3]; single timed insemination, no estrus detection",71%
